Among the data in patent US8148395B2, “Azolopyridin-3-one derivatives as inhibitors of lipases and phospholipases” (Sanofi-Aventis, priority 2006, dated 2012) are IC50 values, retold here.

For the assay, the target named is T1, endothelial lipase (EL) (Homo sapiens, UniProt Q9Y5X9).
T1 construct: EL is released as secretory protein in high concentration into cell culture medium (conditioned medium) by recombinant cell lines (CHO, HEK293); made in house; host or cells: recombinant cell lines (CHO, HEK293); concentrated conditioned medium used as enzyme solution
T1 sequence (Q9Y5X9 21-500): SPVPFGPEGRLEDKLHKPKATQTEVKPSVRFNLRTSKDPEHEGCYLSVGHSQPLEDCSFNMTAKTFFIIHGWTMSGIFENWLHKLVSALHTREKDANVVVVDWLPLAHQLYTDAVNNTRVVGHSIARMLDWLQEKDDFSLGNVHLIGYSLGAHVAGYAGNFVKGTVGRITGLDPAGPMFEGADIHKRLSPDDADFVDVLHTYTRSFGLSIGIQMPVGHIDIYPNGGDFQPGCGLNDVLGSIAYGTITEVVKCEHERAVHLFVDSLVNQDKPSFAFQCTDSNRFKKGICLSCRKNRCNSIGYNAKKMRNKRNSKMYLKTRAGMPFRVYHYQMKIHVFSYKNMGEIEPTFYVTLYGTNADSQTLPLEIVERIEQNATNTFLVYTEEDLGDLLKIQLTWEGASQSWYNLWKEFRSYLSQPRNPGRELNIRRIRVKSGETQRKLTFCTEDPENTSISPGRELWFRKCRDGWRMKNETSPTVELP
In words: EL inhibition assay (EL activity assay, fluorescent Bodipy phospholipid substrate). The following applies: EL from conditioned medium of recombinant cell lines (CHO, HEK293); 37° C., 90 minutes; HPTLC fluorescence read-out. It counts as biochemical. From the text: EL is released as secretory protein in high concentration into cell culture medium (conditioned medium) by recombinant cell lines (CHO, HEK293). This was employed as enzyme solution after concentration.
The phospholipase-specific substrate 1,2-bis(4,4-difluoro-5,7-dimethyl-4-bora-3a,4a-diaza-s-indacene-3-undecanoyl)-sn-glycero-3-phosphocholine, (manufacturer Molecular Probes) was used to characterize the enzymatic activity of endothelial lipase and the effect of inhibitors. Hydrolysis of the A1 ester linkage of this phospholipid by the enzyme liberates a fatty acid labeled with the fluorescent dye Bodipy which can be detected after separation by thin-layer chromatography on an HPTLC plate (silica gel 60, Merck) or directly in the reaction vessel by measuring the fluorescence.
The substrate solution was prepared by 100 μg of 1,2-bis(4,4-difluoro-5,7-dimethyl-4-bora-3a,4a-diaza-s-indacene-3-undecanoyl)-sn-glycero-3-phospho-choline (manufacturer Molecular Probes) being dissolved in 100 μl of DMSO and taken up with 2.4 mg of tripalmitin (Sigma) in 393 μl of chloroform which contained 20 mg/ml DOP-choline (1,2-dioleoyl-sn-glycero-3-phosphocholine). 39.3 μl of this lipid mixture were transferred into a fresh reaction vessel and the solvent was evaporated. The lipid mixture was dissolved in 4 ml of 200 mM TRIS-HCl, 150 mM sodium chloride, pH=7.4, by sonication twice. The subsequent enzymic reaction took place at 37° C. for 90 minutes. For this purpose, 20 μl of the substrate solution were incubated with 2 μl of inhibitor of appropriate concentration (dissolved in 10% DMSO, using 10% DMSO solution for control) and 2 μl of enzyme solution (conditioned medium). Then 4 μl of the assay mixture were loaded onto an HPTLC plate (silica gel 60, Merck), and the liberated fluorescent dye was separated for detection with an eluent (diethyl ether:petroleum benzene:acetic acid [78:22:1]). After evaporation of the eluent, the plate was read in a fluorescence scanner. An increased liberation of the fluorescent dye in the uninhibited reaction was to be observed as a measure of the enzymic activity.
The enzymatic activity was reduced as a function of the inhibitor concentration used. The inhibitor concentration at which a half-maximum enzymatic activity is observed is called IC50.
For the compound `CCCCCCNC(=O)n1oc2nc(C(F)(F)F)ccc2c1=O` [Example 16, 3-Oxo-6-trifluoromethyl-3H-isoxazolo[5,4-b]pyridine-2-carboxylic acid hexylamide], the IC50 (usually the point on the concentration scale where inhibition reaches its midpoint) was 0.01 µM.

For `CCCCCCNC(=O)n1oc2nc(C)ccc2c1=O` [Example 17, 6-Methyl-3-oxo-3H-isoxazolo[5,4-b]pyridine-2-carboxylic acid hexylamide], the IC50 worked out at 0.011 µM.

As to `Cc1cc(Cl)nc2[nH]n(C(=O)N[C@@H]3CCc4ccccc43)c(=O)c12` [Example 8, 6-Chloro-4-methyl-3-oxo-1,3-dihydropyrazolo[3,4-b]pyridine-2-carboxylic acid (R)-indan-1-ylamide], the IC50 is 0.091 µM.

For `Cc1cc(Cl)nc2c1c(=O)n(C(=O)N[C@@H]1CCc3ccccc31)n2C` [Example 14, 6-Chloro-1,4-dimethyl-3-oxo-1,3-dihydropyrazolo[3,4-b]pyridine-2-carboxylic acid (R)-indan-1-ylamide], the IC50 came out at 0.008 µM.

With `Cc1cc(Cl)nc2c1c(=O)n(C(=O)NC1CCCc3ccccc31)n2C` (stereo not shown) [Example 12, 6-Chloro-1,4-dimethyl-3-oxo-1,3-dihydropyrazolo[3,4-b]pyridine-2-carboxylic acid (1,2,3,4-tetrahydronaphthalen-1-yl)amide], the IC50 is 0.029 µM.

Take `Cc1ccccc1CNC(=O)n1c(=O)c2c(C)cc(Cl)nc2n1C` [Example 2, 6-Chloro-1,4-dimethyl-3-oxo-1,3-dihydro-pyrazolo[3,4-b]pyridine-2-carboxylic acid 2-methylbenzylamide]: the IC50 amounted to 0.02 µM.

For `Cc1cc(Cl)nc2[nH]n(C(=O)NC3CCCc4ccccc43)c(=O)c12` (stereo not shown) [Example 9, 6-Chloro-4-methyl-3-oxo-1,3-dihydropyrazolo[3,4-b]pyridine-2-carboxylic acid (1,2,3,4-tetrahydronaphthalen-1-yl)amide], the IC50 was 1.21 µM.

On to `CCCCCCNC(=O)n1c(=O)c2c(C)cc(Cl)nc2n1CCCC` [Example 10, 1-Butyl-6-chloro-4-methyl-3-oxo-1,3-dihydropyrazolo[3,4-b]pyridine-2-carboxylic acid hexylamide], for which the IC50 stood at 0.001 µM.

For the compound `CCCCCCNC(=O)n1oc2ncccc2c1=O` [Example 6, 3-Oxo-3H-isoxazolo[5,4-b]pyridine-2-carboxylic acid hexylamide], the IC50 was 0.043 µM.

As to `Cc1cc(Cl)nc2c1c(=O)n(C(=O)NCCc1cccs1)n2C` [Example 4, 6-Chloro-1,4-dimethyl-3-oxo-1,3-dihydropyrazolo[3,4-b]pyridine-2-carboxylic acid (2-thiophen-2-ylethyl)amide], the IC50 was determined as 0.019 µM.

For `Cc1cc(Cl)nc2c1c(=O)n(C(=O)N[C@H]1CCc3ccccc31)n2C` [Example 13, 6-Chloro-1,4-dimethyl-3-oxo-1,3-dihydropyrazolo[3,4-b]pyridine-2-carboxylic acid (S)-indan-1-ylamide], the IC50 came to 0.204 µM.

For the compound `CCCCn1c2nc(Cl)cc(C)c2c(=O)n1C(=O)NCCc1cccs1` [Example 11, 1-Butyl-6-chloro-4-methyl-3-oxo-1,3-dihydropyrazolo[3,4-b]pyridine-2-carboxylic acid (2-thiophen-2-ylethyl)amide], the IC50 was found to be 1.23 µM.

In the case of `CCCCCCNC(=O)n1c(=O)c2c(C)cc(Cl)nc2n1Cc1ccccc1` [Example 15, 1-Benzyl-6-chloro-4-methyl-3-oxo-1,3-dihydropyrazolo[3,4-b]pyridine-2-carboxylic acid hexylamide], the IC50 is 0.057 µM.
